Assay: solubility of Cy 5.5 before and after conjugation with the sulfonated prosthetic compound
Type: physicochemical
Conditions: unconjugated precursor
Excerpt: This fact confirms that the present invention enables to increase the hydrophilic character of the (bio)molecules conjugated therewith.

solubility in water: water insoluble
Substance: Cy 5.5
